In patent US12371436B2, “Substituted benzodiazoliums as ENaC inhibitors” (ENTERPRISE THERAPEUTICS LIMITED, priority 2016, dated 2025):
Structures can show the parent of a compound that is named as a salt.

The compounds below were run against T1, ENaC (Homo sapiens, UniProt P37088+P51168+P51170) (assay: Short circuit current assay to determine ENaC blocker potency in human bronchial epithelial cells). Conditions: 50% inhibition of total amiloride-sensitive ISC, apical addition, read-out: Averages.ENaC IC50 (nM) Avg.
T1 construct: host or cells: primary human bronchial epithelial cells (HBECs) differentiated at air-liquid interface
T1 sequence (P37088 1-669): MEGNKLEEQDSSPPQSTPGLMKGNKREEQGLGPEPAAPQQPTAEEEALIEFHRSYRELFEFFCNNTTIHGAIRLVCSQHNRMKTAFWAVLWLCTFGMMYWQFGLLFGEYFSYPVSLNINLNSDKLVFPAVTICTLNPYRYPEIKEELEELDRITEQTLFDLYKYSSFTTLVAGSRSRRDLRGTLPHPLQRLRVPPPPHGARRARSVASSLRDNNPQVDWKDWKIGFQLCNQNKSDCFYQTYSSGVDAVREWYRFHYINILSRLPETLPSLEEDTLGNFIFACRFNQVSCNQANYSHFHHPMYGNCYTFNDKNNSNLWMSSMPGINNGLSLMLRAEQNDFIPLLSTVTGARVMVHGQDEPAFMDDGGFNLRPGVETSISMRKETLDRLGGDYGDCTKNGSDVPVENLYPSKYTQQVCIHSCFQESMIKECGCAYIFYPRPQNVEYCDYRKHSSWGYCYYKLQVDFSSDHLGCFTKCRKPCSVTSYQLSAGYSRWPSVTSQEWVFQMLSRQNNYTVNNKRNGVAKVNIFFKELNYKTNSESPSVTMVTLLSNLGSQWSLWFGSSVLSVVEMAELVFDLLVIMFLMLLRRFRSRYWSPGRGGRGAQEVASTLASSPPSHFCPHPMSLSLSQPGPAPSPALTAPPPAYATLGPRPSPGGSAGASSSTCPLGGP
T1 sequence (P51168 1-640): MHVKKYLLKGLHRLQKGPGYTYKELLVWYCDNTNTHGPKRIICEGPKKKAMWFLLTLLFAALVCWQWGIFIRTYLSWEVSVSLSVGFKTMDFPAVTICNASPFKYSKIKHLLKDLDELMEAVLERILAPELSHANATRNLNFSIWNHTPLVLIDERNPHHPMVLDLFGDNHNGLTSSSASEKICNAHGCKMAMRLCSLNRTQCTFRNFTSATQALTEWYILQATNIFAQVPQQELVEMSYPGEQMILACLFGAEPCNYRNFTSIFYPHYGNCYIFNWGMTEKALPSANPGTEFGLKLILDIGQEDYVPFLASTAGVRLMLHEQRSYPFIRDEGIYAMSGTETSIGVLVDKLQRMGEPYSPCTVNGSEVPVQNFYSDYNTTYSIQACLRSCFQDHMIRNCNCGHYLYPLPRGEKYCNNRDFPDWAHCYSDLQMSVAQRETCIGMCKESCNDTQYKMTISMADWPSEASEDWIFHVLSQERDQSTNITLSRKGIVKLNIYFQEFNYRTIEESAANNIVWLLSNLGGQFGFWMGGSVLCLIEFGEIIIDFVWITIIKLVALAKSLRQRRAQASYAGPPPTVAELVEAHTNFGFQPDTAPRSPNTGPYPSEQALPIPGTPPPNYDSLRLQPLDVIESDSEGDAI
T1 sequence (P51170 1-649): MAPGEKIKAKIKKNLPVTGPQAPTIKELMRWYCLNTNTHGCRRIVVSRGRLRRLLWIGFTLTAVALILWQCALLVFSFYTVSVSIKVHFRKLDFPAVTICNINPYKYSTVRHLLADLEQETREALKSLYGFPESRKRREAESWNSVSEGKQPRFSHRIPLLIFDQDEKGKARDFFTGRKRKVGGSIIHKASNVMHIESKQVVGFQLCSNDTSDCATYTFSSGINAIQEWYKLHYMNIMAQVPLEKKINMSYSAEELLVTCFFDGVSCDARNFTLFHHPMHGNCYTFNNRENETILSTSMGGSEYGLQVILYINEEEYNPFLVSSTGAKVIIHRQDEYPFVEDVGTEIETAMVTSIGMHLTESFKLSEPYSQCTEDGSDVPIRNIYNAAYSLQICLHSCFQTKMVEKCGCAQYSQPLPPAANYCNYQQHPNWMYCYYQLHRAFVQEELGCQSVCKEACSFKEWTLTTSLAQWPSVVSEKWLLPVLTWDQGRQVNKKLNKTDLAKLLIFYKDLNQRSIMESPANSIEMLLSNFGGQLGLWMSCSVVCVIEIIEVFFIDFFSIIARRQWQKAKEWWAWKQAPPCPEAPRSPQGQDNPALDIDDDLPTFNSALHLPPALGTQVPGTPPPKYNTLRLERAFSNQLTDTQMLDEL
Format: cell-based
Description: Example 68—Short circuit current assay to determine ENaC blocker potency in human bronchial epithelial cells
Human bronchial epithelial cells (HBECs) (Lonza, UK) were cultured using a modification of the method described by Coote et al, (2008). Cells were seeded into plastic T-75 flasks and grown in Bronchial Epithelial Cell Growth Medium (BEGM) (Lonza, UK) supplemented with bovine pituitary extract (52 ng/mL), hydrocortisone (0.5 μg/mL), human recombinant Epidermal Growth Factor (0.5 ng/mL), epinephrine (0.5 ng/mL), transferrin (10 ng/mL), insulin (5 ng/mL), retinoic acid (0.1 ng/mL), triiodothyronine (6.5 ng/mL), gentamycin (50 μg/mL) and amphotericin-B (50 ng/mL). Medium was changed every 48 hours until cells were 90% confluent. Cells were then passaged and seeded (8.25×10^5 cells/insert) onto polycarbonate Snapwell™ inserts (Costar, UK) in differentiation media containing 50% DMEM in BGEM with the same supplements as above but without triiodothyronine and a final retinoic acid concentration of 50 nM (all-trans retinoic acid; Sigma-Aldrich, UK). Cells were maintained submerged for the first 7 days in culture after which time they were exposed to an apical air interface for the remainder of the culture period. From the first day of establishment of an ALI, HBEC were fed with a DMEM:HAMS F-12 (1:1) media containing 2% Ultroser G (Pall BioSepra, France) with gentamycin (50 μg/mL) and amphotericin B (50 ng/mL). Cells were used for short-circuit current assay between days 14-21 after the establishment of the ALI. At all stages of culture, cells were maintained at 37° C. in 5% CO2 in an air incubator.
Short-Circuit Current (ISC) Measurements
Snapwell inserts were mounted in Costar Vertical Diffusion Chambers (Costar, UK) and were bathed with continuously gassed Ringer solution (5% CO2 in O2; pH 7.4) maintained at 37° C. containing (in mM): 120 NaCl, 25 NaHCO3, 3.3 KH2PO4, 0.8 K2HPO4, 1.2 CaCl2, 1.2 MgCl2 and 10 glucose. The solution osmolarity was always between 280-300 mOsm/kg H2O for all physiological salt solutions used. Cells were voltage clamped to 0 mV (model EVC4000, WPI). Transepithelial resistance (RT) was measured by applying a 2 mV pulse at 30 s intervals and calculating RT by Ohm's law. Data were recorded using a PowerLab workstation (ADlnstruments, UK).
ENaC blocker compounds were added to the apical chamber from a 1000-fold stock solution (prepared in DMSO) to achieve a cumulative concentration response in terms of the inhibition of the basal ISC. At the completion of the concentration response, a supra-maximal concentration of amiloride (10 μM) was added. The concentration of test compound that induced a 50% inhibition of the total amiloride-sensitive ISC (IC50) was calculated using GraphPad Prism v6.05. The results are presented in Table 2, from which it can be seen that the compounds of the present invention have ENaC inhibiting activity.

`CCn1c(CNC(=O)c2nc3cc[nH]c3nc2N)[n+](CC)c2ccc(C(=O)NCCN3CCC(N)CC3)cc21` [Example 42, 2-[({3-amino-5H-pyrrolo[2,3-b]pyrazin-2-yl}formamido)methyl]-6-{[2-(4-aminopiperidin-1-yl)ethyl]carbamoyl}-1,3-diethyl-1H-1,3-benzodiazol-3-ium] and `CCn1c(CNC(=O)c2nc3cc[nH]c3nc2N)[n+](CC)c2ccc(C(=O)N3CCC(N)CC3)cc21` [Example 41, 2-[({3-amino-5H-pyrrolo[2,3-b]pyrazin-2-yl}formamido)methyl]-6-(4-aminopiperidine-1-carbonyl)-1,3-diethyl-1H-1,3-benzodiazol-3-ium] are within 1.5-fold of each other in IC50: 10 nM for the first, 11 nM for the second.

Compared with `CCn1c(CNC(=O)c2nc3cc[nH]c3nc2N)[n+](CC)c2ccc(C(=O)O)cc21` [Example 34, 2-[({3-amino-5H-pyrrolo[2,3-b]pyrazin-2-yl}formamido)methyl]-6-carboxy-1,3-diethyl-1H-1,3-benzodiazol-3-ium], `CCn1c(CNC(=O)c2nc3cc[nH]c3nc2N)[n+](CC)c2ccc(OC)cc21` [Example 7, 2-[({3-amino-5H-pyrrolo[2,3-b]pyrazin-2-yl}formamido)methyl]-1,3-diethyl-6-methoxy-1H-1,3-benzodiazol-3-ium formate] is 53-fold lower in IC50: 160 nM for the first, 3 nM for the second.

`CCn1c(CNC(=O)c2nc3cc[nH]c3nc2N)[n+](CCOCCOCCO)c2ccc(OC)cc21` [Example 14, 2-[({3-amino-5H-pyrrolo[2,3-b]pyrazin-2-yl}formamido)methyl]-1-ethyl-3-{2-[2-(2-hydroxyethoxy)ethoxy]ethyl}-6-methoxy-1H-1,3-benzodiazol-3-ium] and `CCn1c(CNC(=O)c2nc3cc[nH]c3nc2N)[n+](CC)c2ccc(OCCNC(=O)OC(C)(C)C)cc21` [Example 22, 2-[({3-amino-5H-pyrrolo[2,3-b]pyrazin-2-yl}formamido)methyl]-6-(2-{[(tert-butoxy)carbonyl]amino}ethoxy)-1,3-diethyl-1H-1,3-benzodiazol-3-ium] are within 1.5-fold of each other in IC50: 11 nM for the first, 8 nM for the second.

Going from `CCn1c(CNC(=O)c2nc3cc[nH]c3nc2N)[n+](C)c2ccc(Cl)cc21` [Example 3, 2-[({3-amino-5H-pyrrolo[2,3-b]pyrazin-2-yl}formamido)methyl]-6-chloro-1-ethyl-3-methyl-1H-1,3-benzodiazol-3-ium formate] to `CCn1c(CNC(=O)c2nc3cc[nH]c3nc2N)[n+](C)c2ccc(C(F)(F)F)cc21` [Example 5, 2-[({3-amino-5H-pyrrolo[2,3-b]pyrazin-2-yl}formamido)methyl]-1-ethyl-3-methyl-6-(trifluoromethyl)-1H-1,3-benzodiazol-3-ium formate], the IC50 falls from 19 nM to 9 nM (2.1-fold).

First: CCn1c(CNC(=O)c2nc3cc[nH]c3nc2N)[n+](CC)c2ccc(-c3cnn(C4CCN(C[C@H](O)[C@@H](O)[C@H](O)[C@H](O)CO)CC4)c3)cc21 [Example 47, 2-[({3-amino-5H-pyrrolo[2,3-b]pyrazin-2-yl}formamido)methyl]-1,3-diethyl-6-(1-{1-[(2S,3R,4R,5R)-2,3,4,5,6-pentahydroxyhexyl]piperidin-4-yl}-1H-pyrazol-4-yl)-1H-1,3-benzodiazol-3-ium]
Second: CCn1c(CNC(=O)c2nc3cc[nH]c3nc2N)[n+](CC)c2ccc(OCCN(C[C@H](O)[C@@H](O)[C@H](O)[C@H](O)CO)C[C@H](O)[C@@H](O)[C@H](O)[C@H](O)CO)cc21 [Example 43, 2-[({3-amino-5H-pyrrolo[2,3-b]pyrazin-2-yl}formamido)methyl]-5-(2-{bis[(2S,3R,4R,5R)-2,3,4,5,6-pentahydroxyhexyl]amino}ethoxy)-1,3-diethyl-1H-1,3-benzodiazol-3-ium]
The IC50 of the first is 10-fold lower: 5 nM for the first, 51 nM for the second.

Going from `CCn1c(CNC(=O)c2nc3cc[nH]c3nc2N)[n+](CC)c2ccc(C3CCN(C(=O)OC(C)(C)C)CC3)cc21` [Example 25, 2-[({3-amino-5H-pyrrolo[2,3-b]pyrazin-2-yl}formamido)methyl]-6-{1-[(tert-butoxy)carbonyl]piperidin-4-yl}-1,3-diethyl-1H-1,3-benzodiazol-3-ium] to `CCn1c(CNC(=O)c2nc3cc[nH]c3nc2N)[n+](CC)c2ccc(CCCNC(=O)OC(C)(C)C)cc21` [Example 24, 2-[({3-amino-5H-pyrrolo[2,3-b]pyrazin-2-yl}formamido)methyl]-6-(3-{[(tert-butoxy)carbonyl]amino}propyl)-1,3-diethyl-1H-1,3-benzodiazol-3-ium], the IC50 rises from 2 nM to 6 nM (3-fold).

`CCn1c(CNC(=O)c2nc3cc[nH]c3nc2N)[n+](Cc2ccccc2)c2ccc(Cl)cc21` [Example 16, 2-[({3-amino-5H-pyrrolo[2,3-b]pyrazin-2-yl}formamido)methyl]-3-benzyl-6-chloro-1-ethyl-1H-1,3-benzodiazol-3-ium] and `CCn1c(CNC(=O)c2nc3cc(C)[nH]c3nc2N)[n+](C)c2ccc(OC)cc21` [Example 19, 2-[({3-amino-6-methyl-5H-pyrrolo[2,3-b]pyrazin-2-yl}formamido)methyl]-1-ethyl-6-methoxy-3-methyl-1H-1,3-benzodiazol-3-ium] are within 1.5-fold of each other in IC50: 10 nM for the first, 8 nM for the second.
